Assays:
Rhyzoctonia violaceae [1] = assay: Inhibition of phytopathogenic fungi growth, laboratory test on potato-dextrose agar; format: cell-based; details: active principle 0.01 % by mass in potato-dextrose agar
Method: (§1) A fungicidal composition based on this compound was prepared in the form of a 0.01% solution thereof in distilled water. A fungicidal action of the composition, according to the invention, was tested for inhibition of vegetative fungi growth such as Fusarium moniliforme, Ventura inaequalis, Rhyzoctonia ciolaceae, Botrytis cinereae, Verticillium albo-atrum, Diplodia zeae, Fusarium oxysporum, Rhoma betae, Rhyzoctonia aderholdii, Aspergillus niger, Alternaria sobani, Botrytis allii, Aspergillus fumigatis, Fusarium culmorum, Penicillium cyclopium affecting potato, sugar beet, cotton seeds either in laboratory or field conditions. For testing it to the Petri dishes containing potato-dextrose agar the composition of the invention was.added at the concentration of an active principle of 0.01 % by mass. The Petri dishes containing the same agar culture were inoculated with a mycelium of phytopathogenic fungi. For control dishes the phytopathogenic fungi were inoculated on agar without using the composition of the invention. A fungicidal effect of the composition, according to the invention was tested in comparison with the known fungicidal compositions based on 2,3-dichloro-1,4-naphthoquinone, zinc N,N'-ethylene-bis-dithiocarbamate and tetramethylthiuram disulphide.

Botrytis allii [2] = assay: as above; format: cell-based; details: active principle 0.01 % by mass in potato-dextrose agar
Method: as §1

Rhyzoctonia aderholdii [3] = assay: as above; format: cell-based; details: active principle 0.01 % by mass in potato-dextrose agar
Method: as §1

Fusarium culmorum [4] = assay: as above; format: cell-based; details: active principle 0.01 % by mass in potato-dextrose agar
Method: as §1

Aspergillus niger [5] = assay: as above; format: cell-based; details: active principle 0.01 % by mass in potato-dextrose agar
Method: as §1

Venturia inaequalis [6] = assay: as above; format: cell-based; details: active principle 0.01 % by mass in potato-dextrose agar
Method: as §1

Fusarium oxysporum [7] = assay: as above; format: cell-based; details: active principle 0.01 % by mass in potato-dextrose agar
Method: as §1

Fusarium moniliforme [8] = assay: as above; format: cell-based; details: active principle 0.01 % by mass in potato-dextrose agar
Method: as §1

Diplodia zeae [9] = assay: as above; format: cell-based; details: active principle 0.01 % by mass in potato-dextrose agar
Method: as §1

Penicillium cyclopium [10] = assay: as above; format: cell-based; details: active principle 0.01 % by mass in potato-dextrose agar
Method: as §1

Verticillium albo-atrum [11] = assay: as above; format: cell-based; details: active principle 0.01 % by mass in potato-dextrose agar
Method: as §1

Botrytis cinereae [12] = assay: as above; format: cell-based; details: active principle 0.01 % by mass in potato-dextrose agar
Method: as §1

Aspergillus fumigatis [13] = assay: as above; format: cell-based; details: active principle 0.01 % by mass in potato-dextrose agar
Method: as §1

Alternaria sobani [14] = assay: as above; format: cell-based; details: active principle 0.01 % by mass in potato-dextrose agar
Method: as §1

Rhoma betae [15] = assay: as above; format: cell-based; details: active principle 0.01 % by mass in potato-dextrose agar
Method: as §1

Rhyzoctonia violaceae [16] = assay: Inhibition of phytopathogenic fungi, field test on affected potato plants; format: in vivo; details: 5 m^2 plots of affected potato plants sprayed
Source text: (§2) For field tests the plots of 5 m^2 in size with potato plants affected by Fusarium moniliforme, Venturia inaequalis, Rhyzoctonia violaceae, Botrytis cinereae, Verticillium albo-atrum, Diplodia zeae, Fusarium oxysporum, Rhoma betae, Rhyzoctonia aderholdii, Aspergillus niger, Alternaria sobani, Botrytis allii, Aspergillus fumigatis, Fusarium culmorum, Penicillium cyclopium were sprayed with the fungicide of the invention. To compare, the similar plots of the affected potato plants were aprayed with the known compositions indicated above.

Botrytis allii [17] = assay: as above; format: in vivo; details: 5 m^2 plots of affected potato plants sprayed
Source text: as §2

Rhyzoctonia aderholdii [18] = assay: as above; format: in vivo; details: 5 m^2 plots of affected potato plants sprayed
Source text: as §2

Fusarium culmorum [19] = assay: as above; format: in vivo; details: 5 m^2 plots of affected potato plants sprayed
Source text: as §2

Aspergillus niger [20] = assay: as above; format: in vivo; details: 5 m^2 plots of affected potato plants sprayed
Source text: as §2

Venturia inaequalis [21] = assay: as above; format: in vivo; details: 5 m^2 plots of affected potato plants sprayed
Source text: as §2

Fusarium oxysporum [22] = assay: as above; format: in vivo; details: 5 m^2 plots of affected potato plants sprayed
Source text: as §2

Fusarium moniliforme [23] = assay: as above; format: in vivo; details: 5 m^2 plots of affected potato plants sprayed
Source text: as §2

Diplodia zeae [24] = assay: as above; format: in vivo; details: 5 m^2 plots of affected potato plants sprayed
Source text: as §2

Penicillium cyclopium [25] = assay: as above; format: in vivo; details: 5 m^2 plots of affected potato plants sprayed
Source text: as §2

Verticillium albo-atrum [26] = assay: as above; format: in vivo; details: 5 m^2 plots of affected potato plants sprayed
Source text: as §2

Botrytis cinereae [27] = assay: as above; format: in vivo; details: 5 m^2 plots of affected potato plants sprayed
Source text: as §2

Aspergillus fumigatis [28] = assay: as above; format: in vivo; details: 5 m^2 plots of affected potato plants sprayed
Source text: as §2

Alternaria sobani [29] = assay: as above; format: in vivo; details: 5 m^2 plots of affected potato plants sprayed
Source text: as §2

Rhoma betae [30] = assay: as above; format: in vivo; details: 5 m^2 plots of affected potato plants sprayed
Source text: as §2

Solubility (qualitative) = details: water, alcohols, acetone

O=C(NP(=O)(NC(CO)C(O)c1ccc([N+](=O)[O-])cc1)NC(CO)C(O)c1ccc([N+](=O)[O-])cc1)c1ccc(Cl)cc1 (centres unmarked) [Example 12, para-chlorobenzoylamidophosphoric acid di-1-para-nitrophenyl-1,3-propandiol-2-amide]
Inhibition of growth of phytopathogenic fungi colonies, % Rhyzoctonia violaceae test laboratory (Rhyzoctonia violaceae [1]): 24%
Inhibition of growth of phytopathogenic fungi colonies, % Botrytis allii test laboratory (Botrytis allii [2]): 100%
Inhibition of growth of phytopathogenic fungi colonies, % Rhyzoctonia aderholdii test laboratory (Rhyzoctonia aderholdii [3]): 100%
Inhibition of growth of phytopathogenic fungi colonies, % Fusarium culmorum Tests laboratory (Fusarium culmorum [4]): 66%
Inhibition of growth of phytopathogenic fungi colonies, % Aspergillus niger test laboratory (Aspergillus niger [5]): 66%
Inhibition of growth of phytopathogenic fungi colonies, % Venturia inaequalis test laboratory (Venturia inaequalis [6]): 70%
Inhibition of growth of phytopathogenic fungi colonies, % Fusarium oxysporum test laboratory (Fusarium oxysporum [7]): 60%
Inhibition of growth of phytopathogenic fungi colonies, % Fusatium monili-forme test laboratory (Fusarium moniliforme [8]): 59%
Inhibition of growth of phytopathogenic fungi colonies, % Diplodia zeae test laboratory (Diplodia zeae [9]): 100%
Inhibition of growth of phytopathogenic fungi colonies, % Penicillium cyclopium Tests laboratory (Penicillium cyclopium [10]): 87%
Inhibition of growth of phytopathogenic fungi colonies, % Verticillium albo--atrum test laboratory (Verticillium albo-atrum [11]): 100%
Inhibition of growth of phytopathogenic fungi colonies, % Botrytis cinereae test laboratory (Botrytis cinereae [12]): 34%
Inhibition of growth of phytopathogenic fungi colonies, % Aspergillus fumigatis Tests laboratory (Aspergillus fumigatis [13]): 87%
Inhibition of growth of phytopathogenic fungi colonies, % Alternaria sobani test laboratory (Alternaria sobani [14]): 48%
Inhibition of growth of phytopathogenic fungi colonies, % Rhoma betae test laboratory (Rhoma betae [15]): 64%
Inhibition of growth of phytopathogenic fungi colonies, % Rhyzoctonia violaceae test field (Rhyzoctonia violaceae [16]): 22%
Inhibition of growth of phytopathogenic fungi colonies, % Botrytis allii test field (Botrytis allii [17]): 99%
Inhibition of growth of phytopathogenic fungi colonies, % Rhyzoctonia aderholdii test field (Rhyzoctonia aderholdii [18]): 100%
Inhibition of growth of phytopathogenic fungi colonies, % Fusarium culmorum Tests field (Fusarium culmorum [19]): 61%
Inhibition of growth of phytopathogenic fungi colonies, % Aspergillus niger test field (Aspergillus niger [20]): 59%
Inhibition of growth of phytopathogenic fungi colonies, % Venturia inaequalis test field (Venturia inaequalis [21]): 65%
Inhibition of growth of phytopathogenic fungi colonies, % Fusarium oxysporum test field (Fusarium oxysporum [22]): 59%
Inhibition of growth of phytopathogenic fungi colonies, % Fusatium monili-forme test field (Fusarium moniliforme [23]): 56%
Inhibition of growth of phytopathogenic fungi colonies, % Diplodia zeae test field (Diplodia zeae [24]): 98%
Inhibition of growth of phytopathogenic fungi colonies, % Penicillium cyclopium Tests field (Penicillium cyclopium [25]): 84%
Inhibition of growth of phytopathogenic fungi colonies, % Verticillium albo--atrum test field (Verticillium albo-atrum [26]): 100%
Inhibition of growth of phytopathogenic fungi colonies, % Botrytis cinereae test field (Botrytis cinereae [27]): 33%
Inhibition of growth of phytopathogenic fungi colonies, % Aspergillus fumigatis Tests field (Aspergillus fumigatis [28]): 80%
Inhibition of growth of phytopathogenic fungi colonies, % Alternaria sobani test field (Alternaria sobani [29]): 46%
Inhibition of growth of phytopathogenic fungi colonies, % Rhoma betae test field (Rhoma betae [30]): 63%
solubility (Solubility (qualitative)): soluble in water, alcohols, acetone

O=C(NP(=O)(Nc1ccc(Cl)cc1[N+](=O)[O-])Nc1ccc(Cl)cc1[N+](=O)[O-])c1ccc(Br)cc1 [Example 16, para-bromobenzoylamidophosphoric acid di-para-chloro-ortho--nitroanilide]
Inhibition of growth of phytopathogenic fungi colonies, % Rhyzoctonia violaceae test laboratory (Rhyzoctonia violaceae [1]): 87%
Inhibition of growth of phytopathogenic fungi colonies, % Botrytis allii test laboratory (Botrytis allii [2]): 100%
Inhibition of growth of phytopathogenic fungi colonies, % Rhyzoctonia aderholdii test laboratory (Rhyzoctonia aderholdii [3]): 100%
Inhibition of growth of phytopathogenic fungi colonies, % Fusarium culmorum Tests laboratory (Fusarium culmorum [4]): 100%
Inhibition of growth of phytopathogenic fungi colonies, % Aspergillus niger test laboratory (Aspergillus niger [5]): 100%
Inhibition of growth of phytopathogenic fungi colonies, % Venturia inaequalis test laboratory (Venturia inaequalis [6]): 100%
Inhibition of growth of phytopathogenic fungi colonies, % Fusarium oxysporum test laboratory (Fusarium oxysporum [7]): 98%
Inhibition of growth of phytopathogenic fungi colonies, % Fusatium monili-forme test laboratory (Fusarium moniliforme [8]): 74%
Inhibition of growth of phytopathogenic fungi colonies, % Diplodia zeae test laboratory (Diplodia zeae [9]): 100%
Inhibition of growth of phytopathogenic fungi colonies, % Penicillium cyclopium Tests laboratory (Penicillium cyclopium [10]): 80%
Inhibition of growth of phytopathogenic fungi colonies, % Verticillium albo--atrum test laboratory (Verticillium albo-atrum [11]): 100%
Inhibition of growth of phytopathogenic fungi colonies, % Botrytis cinereae test laboratory (Botrytis cinereae [12]): 100%
Inhibition of growth of phytopathogenic fungi colonies, % Aspergillus fumigatis Tests laboratory (Aspergillus fumigatis [13]): 92%
Inhibition of growth of phytopathogenic fungi colonies, % Alternaria sobani test laboratory (Alternaria sobani [14]): 100%
Inhibition of growth of phytopathogenic fungi colonies, % Rhoma betae test laboratory (Rhoma betae [15]): 100%
Inhibition of growth of phytopathogenic fungi colonies, % Rhyzoctonia violaceae test field (Rhyzoctonia violaceae [16]): 86%
Inhibition of growth of phytopathogenic fungi colonies, % Botrytis allii test field (Botrytis allii [17]): 100%
Inhibition of growth of phytopathogenic fungi colonies, % Rhyzoctonia aderholdii test field (Rhyzoctonia aderholdii [18]): 100%
Inhibition of growth of phytopathogenic fungi colonies, % Fusarium culmorum Tests field (Fusarium culmorum [19]): 99%
Inhibition of growth of phytopathogenic fungi colonies, % Aspergillus niger test field (Aspergillus niger [20]): 100%
Inhibition of growth of phytopathogenic fungi colonies, % Venturia inaequalis test field (Venturia inaequalis [21]): 100%
Inhibition of growth of phytopathogenic fungi colonies, % Fusarium oxysporum test field (Fusarium oxysporum [22]): 97%
Inhibition of growth of phytopathogenic fungi colonies, % Fusatium monili-forme test field (Fusarium moniliforme [23]): 73%
Inhibition of growth of phytopathogenic fungi colonies, % Diplodia zeae test field (Diplodia zeae [24]): 100%
Inhibition of growth of phytopathogenic fungi colonies, % Penicillium cyclopium Tests field (Penicillium cyclopium [25]): 79%
Inhibition of growth of phytopathogenic fungi colonies, % Verticillium albo--atrum test field (Verticillium albo-atrum [26]): 100%
Inhibition of growth of phytopathogenic fungi colonies, % Botrytis cinereae test field (Botrytis cinereae [27]): 100%
Inhibition of growth of phytopathogenic fungi colonies, % Aspergillus fumigatis Tests field (Aspergillus fumigatis [28]): 91%
Inhibition of growth of phytopathogenic fungi colonies, % Alternaria sobani test field (Alternaria sobani [29]): 98%
Inhibition of growth of phytopathogenic fungi colonies, % Rhoma betae test field (Rhoma betae [30]): 99%
solubility (Solubility (qualitative)): soluble in water, alcohols, acetone

— EP0407583A1, “DERIVATIVES OF DICHLOR[…] ACYLAMIDO[…] AND INSECTICIDAL, FU[…] HEMATOCIDAL PREPARATIONS BASED ON THEM” (priority 1989, dated 1990)
